The assay deals with T1, human CB1 receptor (Homo sapiens, UniProt P21554).
T1 construct: expressed in transfected cells; host or cells: CHO (Chinese Hamster Ovary) cells
The assay is described as follows: In-vitro determination of efficacy and potency at the human CB1 receptor expressed in CHO cells (luciferase reporter assay). Type of assay: cell-based. Particulars: CHO cells expressing the human CB1 receptor and a luciferase reporter gene; 5 h incubation at 37° C. Here is the method: Methods to determine receptor binding as well as in vitro biological activity of cannabinoid receptor modulators are well known in the art. In general, expressed receptor is contacted with the compound to be tested and binding or stimulation or inhibition of a functional response is measured.
In-Vitro Determination of Efficacy and Potency at the Human CB1 Receptor Expressed in CHO Cells
Chinese Hamster Ovary (CHO) cells expressing the human CB1 receptor and a luciferase reporter gene were suspended in phenol red/serum free DMEM/F-12 nut mix containing penicillin/streptomycin (50 U/50 μg/ml) and fungizone (1 μg/ml) and seeded into 96 well plates at a density of 3×10^4 cells per well (100 μl final volume). Cells were incubated overnight (approx. 18 h at 37° C., 5% CO2/95% air) prior to assay.
The test compound (10 mM solution in dimethylsulfoxide) was diluted in F12 Nut Mix to give a range of stock solutions from 0.11 mM to 0.11 nM. The stock solutions (10 μl) were added directly to the relevant wells. The plates were incubated at 37° C. for 5 h to allow agonist-induced expression of the luciferase enzyme. Under subdued light, LucLite substrate (Packard; reconstituted as per manufacturer's instructions; 100 μl) was added to each well. Plates were covered with Top Seal and then incubated at room temperature for 5 minutes before counting on the Packard TopCount (single photon counting, 0.01 minute count time, 5 minute count delay).
A “best-fit” curve was fitted by a minimum sum of squares method to the plot of counts per second (CPS) against compound concentration (M) to obtain an EC50 value.

T1 sequence (P21554 whole entry): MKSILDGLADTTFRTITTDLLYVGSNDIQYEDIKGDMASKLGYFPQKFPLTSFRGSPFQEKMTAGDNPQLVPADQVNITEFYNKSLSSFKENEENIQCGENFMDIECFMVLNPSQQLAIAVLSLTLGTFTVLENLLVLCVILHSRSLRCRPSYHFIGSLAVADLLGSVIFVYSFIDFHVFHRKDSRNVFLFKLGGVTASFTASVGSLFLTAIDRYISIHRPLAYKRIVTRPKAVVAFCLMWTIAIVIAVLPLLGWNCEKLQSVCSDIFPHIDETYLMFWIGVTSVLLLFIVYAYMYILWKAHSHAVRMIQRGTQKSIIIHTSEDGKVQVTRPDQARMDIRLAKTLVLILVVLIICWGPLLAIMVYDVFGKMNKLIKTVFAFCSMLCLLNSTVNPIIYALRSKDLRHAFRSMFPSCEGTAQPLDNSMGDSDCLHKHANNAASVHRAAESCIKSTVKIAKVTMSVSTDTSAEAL

On to `NC(=O)CN1CCN(Cc2nc(-c3cn(CC4CCOCC4)c4c(Cl)cccc34)ns2)CC1` [Example 1, 3-({5-[4-(Carbamoylmethyl)piperazin-1-yl]methyl}-[1,2,4]-thiadiazol-3-yl)-7-chloro-1-(tetrahydropyran-4-yl)methyl-1H-indole], for which the response was half-maximal at 15.8 nM (EC50). Then `CCNC(=O)CN1CCN(Cc2nc(-c3cn(CC4CCOCC4)c4c(Cl)cccc34)ns2)CC1` [Example 3, 7-Chloro-3-({5-[4-(ethylcarbamoyl)methylpiperazin-1-yl]methyl}-[1,2,4]-thiadiazol-3-yl)-1-(tetrahydropyran-4-yl)methyl-1H-indole], with 39.8 nM; and `CCc1cccc2c(-c3nsc(CN4CCN(CC(=O)NC(C)C)CC4)n3)cn(CC3CCOCC3)c12` [Example 6b, 7-Ethyl-3-({5-[4-(N-isopropylcarbamoyl)methylpiperazin-1-yl]methyl}-[1,2,4]-thiadiazol-3-yl)-1-(tetrahydropyran-4-yl)methyl-1H-indole], with 50.1 nM.

In turn, `CCc1cccc2c(-c3nsc(CN4CCN(CC(=O)OC)CC4)n3)cn(CC3CCOCC3)c12` [Example 6d, 7-Ethyl-3-({5-[4-(methoxycarbonylmethyl)piperazin-1-yl]methyl}-[1,2,4]-thiadiazol-3-yl)-1-(tetrahydropyran-4-yl)methyl-1H-indole] gave an EC50 of 63.1 nM. Then `COc1cccc2c(-c3nsc(CN4CCN(CC(N)=O)CC4)n3)cn(CC3CCOCC3)c12` [Example 7a, 3-({5-[4-(Carbamoylmethyl)piperazin-1-yl]methyl}-[1,2,4]-thiadiazol-3-yl)-7-methoxy-1-(tetrahydropyran-4-yl)methyl-1H-indole], with 100 nM. Then `NC(=O)CN1CCN(Cc2nc(-c3cn(CC4CCOCC4)c4c(Cl)cccc34)no2)CC1` [Example 11, 3-({5-[4-(Carbamoylmethyl)piperazin-1-yl]methyl}-[1,2,4]-oxadiazol-3-yl)-7-chloro-1-(tetrahydropyran-4-yl)methyl-1H-indole], with 79.4 nM; and `O=S1(=O)CCC(Cn2cc(-c3noc(CN4CCN(Cc5ncon5)CC4)n3)c3cccc(Cl)c32)CC1` [Example 17, 7-Chloro-3-({5-[4-([1,2,4]oxadiazol-3-ylmethyl)piperazin-1-yl]methyl}-[1,2,4]-oxadiazol-3-yl)-1-(1,1-dioxo-hexahydrothiopyran-4-yl)methyl-1H-indole], with 158 nM; and `NC(=O)CN1CCCN(Cc2nc(-c3cn(CC4CCOCC4)c4c(Cl)cccc34)no2)CC1` [Example 21d, 3-{5-[4-(Carbamoylmethyl)-homopiperazin-1-ylmethyl]-[1,2,4]-oxadiazol-3-yl}-7-chloro-1-[(tetrahydropyran-4-yl)methyl]-1H-indole], with 63.1 nM.

In turn, `CNC(=O)CN1CCN(Cc2nc(-c3cn(CC4CCOCC4)c4c(Cl)cccc34)no2)C[C@H]1CO` [Example 24, (S)-7-Chloro-3-[5-[3-hydroxymethyl-4-(methylcarbamoylmethyl)piperazin-1-ylmethyl]-[1,2,4]-oxadiazol-3-yl]-1-[(tetrahydropyran-4-yl)methyl]-1H-indole] gave a concentration giving a half-maximal response (EC50) of 12.6 nM. The result for `NC(=O)CN1CCN(Cc2csc(-c3cn(CC4CCOCC4)c4c(Cl)cccc34)n2)CC1` [Example 31, 3-({4-[4-(Carbamoylmethyl)piperazin-1-yl]methyl}-[1,3]-thiazol-2-yl)-7-chloro-1-(tetrahydropyran-4-yl)methyl-1H-indole] reads 63.1 nM.

By EC50 is commonly meant the concentration giving half of the maximal effect.

(Values after patent US7655645B2, “Indole derivatives” (N.V. Organon, priority 2007, dated 2010).)
